Assay results as given in patent publication US7829580B2, “Cyclic amine derivative having heteroaryl ring” (Sankyo Company, Ltd., priority 2006, dated 2010).
Structures can show the parent of a compound that is named as a salt.

Legend:
[1] = tested on: platelet coagulation; assay: Inhibitory activities of test compounds against platelet coagulation in vitro (ADP-induced, rat platelet-rich plasma, aggregometer); assay type: cell-based; details: 10 μg/ml test substance in rat PRP, maximum rate of platelet coagulation over 5 min; for inhibition at 10 µg/mL: 5 min, read-out: Test Example 1 (% inhibition)
Description: Confirmation of Inhibitory Activities of Test Compounds Against Platelet Coagulation In Vitro
Three to four male Sprague-Dawley rats (8 weeks of age, Japan SLC., Inc.) per group were used in the present test. Platelet coagulation was determined by platelet aggregometer (MCM Hema Tracer 313M, MC Medical, Inc.) according to modified methods described by Born et al. (Journal of Physiology, vol. 168, 178 (1963)). Blood (6.3 ml) was collected from abdominal aorta of rats anesthetized with pentobarbital sodium (40 mg/kg) with a microsyringe containing 0.7 ml of sodium citrate at a concentration of 3.8% as anti-coagulant. The obtained blood containing sodium citrate was centrifuged (230×g for 15 min at room temperature) and plate-rich plasma (hereinafter referred to as PRP) fraction was isolated. Furthermore, after PRP was isolated, the blood was further centrifuged (2,000×g for 10 min at room temperature) and platelet-poor plasma (hereinafter referred to as PPP) fraction was isolated. Platelet count in PRP was determined by automated hematology analyzer (KX-21N, SYSMEX CORPORATION) and adjusted as 5×10^8/ml. After PRP (239 μl) was put into each cuvette, the test substance dissolved in dimethyl sulfoxide (DMSO, 1 μl) was added to the PRP solution and assessed by automated hematology analyzer. In the control group, DMSO solution (1 μl) instead of the test substance solution was added to the PRP solution. After warming at 37° C. for 1.5 min, 10 μl of adenosine-5′-diphosphate (ADP) solution (final concentration: […]) was added, and platelet coagulation was induced. Platelet coagulation was determined for 5 min and the maximum rate of plate coagulation determined.

[2] = tested on: platelet coagulation; assay: Inhibitory activities of test compounds against platelet coagulation ex vivo (oral administration to rats 4 hrs prior to blood collection, ADP-induced, PRP); assay type: in vivo, rat; details: for inhibition at 10 µg/mL: Rattus norvegicus, Platelet, po, 4 h, read-out: Test Example 2 (% inhibition); for Test Example 2 (% inhibition): head prints (10 μg/ml), orally administered to rats 4 hrs prior to blood collection, ADP-induced coagulation in PRP
Description: Three to four male Sprague-Dawley rats (8 weeks of age, Japan SLC., Inc.) per group were used in the present test. […] In the control group, the vehicle was similarly and orally administered at the rate of 1 mL/kg 4 hrs prior to the blood collection. […] The obtained blood containing sodium citrate was centrifuged (230×g for 15 min at room temperature) and PRP fraction was isolated. Furthermore, after PRP was isolated, the blood was further centrifuged (2,000×g for 10 min at room temperature) and PPP fraction was isolated. Platelet count in PRP was determined by automated hematology analyzer (KX-21N, SYSMEX CORPORATION) and adjusted as 5×10^8/ml. After PRP (240 μl) was put into each cuvette, the platelet coagulation was assessed by automated hematology analyzer. After warming at 37° C. for 1.5 min, 10 μl of ADP solution (final concentration: […]) was added, and platelet coagulation was induced. Platelet coagulation was determined for 5 min and the maximum rate of plate coagulation determined.

O=C(O)CCCCn1ccc(/C=C2\CN(C(C(=O)C3CC3)c3ccccc3F)CCC2S)n1 (stereo not drawn) [Example 121, (E)-3-{[1-(4-Carboxybutyl)-1H-pyrazol-3-yl]methylidene}-1-[2-cyclopropyl-1-(2-fluorophenyl)-2-oxoethyl]-4-sulfanylpiperidine hydrochloride]
inhibition at 10 µg/mL [1]: 55%
inhibition at 10 µg/mL [2]: 72%

CCOC(=O)CCn1ccc(/C=C2\CN(C(C(=O)C3CC3)c3ccccc3F)CCC2S)n1 (stereo not drawn) [Example 112, (E)-1-[2-Cyclopropyl-1-(2-fluorophenyl)-2-oxoethyl]-3-({1-[2-(ethoxycarbonyl)ethyl]-1H-pyrazol-3-yl}methylidene)-4-sulfanylpiperidine hydrochloride]
inhibition at 10 µg/mL [1]: 75%
inhibition at 10 µg/mL [2]: 91%

CC(=O)SC1CCN(C(C(=O)C2CC2)c2ccccc2F)C/C1=C\c1ccn(CCC(=O)O)n1 (stereo not drawn) [Example 114, (E)-4-(Acetylsulfanyl)-3-{[1-(2-carboxyethyl)-1H-pyrazol-3-yl]methylidene}-1-[2-cyclopropyl-1-(2-fluorophenyl)-2-oxoethyl]piperidine hydrochloride]
inhibition at 10 µg/mL [2]: 81%

O=C(O)CCn1nncc1/C=C1\CN(C(C(=O)C2CC2)c2ccccc2F)CCC1S (stereo not drawn) [Example 134, (E)-3-{[1-(2-Carboxyethyl)-1H-1,2,3-triazol-5-yl]methylidene}-1-[2-cyclopropyl-1-(2-fluorophenyl)-2-oxoethyl]-4-sulfanylpiperidine hydrochloride]
inhibition at 10 µg/mL [1]: 85%

O=C(O)CCCn1ccc(/C=C2\CN(C(C(=O)C3CC3)c3ccccc3F)CCC2S)n1 (stereo not drawn) [Example 117, (E)-3-{[1-(3-Carboxypropyl)-1H-pyrazol-3-yl]methylidene}-1-[2-cyclopropyl-1-(2-fluorophenyl)-2-oxoethyl]-4-sulfanylpiperidine hydrochloride]
inhibition at 10 µg/mL [1]: 70%
inhibition at 10 µg/mL [2]: 63%

CCOC(=O)Cn1ccc(/C=C2/CN(C(C(=O)C3CC3)c3ccccc3F)CCC2S)n1 (stereo not drawn) [Example 154, (Z)-1-[2-Cyclopropyl-1-(2-fluorophenyl)-2-oxoethyl]-3-{[1-(ethoxycarbonylmethyl)-1H-pyrazol-3-yl]methylidene}-4-sulfanylpiperidine hydrochloride]
inhibition at 10 µg/mL [2]: 79%

O=C(O)CCCn1cc(/C=C2\CN(C(C(=O)C3CC3)c3ccccc3F)CCC2S)nn1 (stereo not drawn) [Example 143, (E)-3-{[1-(3-Carboxypropyl)-1H-1,2,3-triazol-4-yl]methylidene}-1-[2-cyclopropyl-1-(2-fluorophenyl)-2-oxoethyl]-4-sulfanylpiperidine hydrochloride]
inhibition at 10 µg/mL [1]: 81%
inhibition at 10 µg/mL [2]: 69%

O=C(CCCn1nncc1/C=C1\CN(C(C(=O)C2CC2)c2ccccc2F)CCC1S)NO (stereo not drawn) [Example 262, (E)-1-[2-Cyclopropyl-1-(2-fluorophenyl)-2-oxoethyl]-3-({1-[3-(N-hydroxycarbamoyl)propyl]-1H-1,2,3-triazol-5-yl}methylidene)-4-sulfanylpiperidine hydrochloride]
inhibition at 10 µg/mL [1]: 71%
inhibition at 10 µg/mL [2]: 91%

Cl.O=C(O)CCn1cc(/C=C2\CN(C(C(=O)C3CC3)c3ccccc3F)CCC2S)cn1 (stereo not drawn) [Example 249, (E)-3-{[2-(Carboxyethyl)-1H-pyrazol-4-yl]methylidene}-1-[2-cyclopropyl-1-(2-fluorophenyl)-2-oxoethyl]-4-sulfanylpiperidine hydrochloride]
Test Example 1 (% inhibition) [1]: 81%
Test Example 2 (% inhibition) [2]: 88%

Cl.O=C(C1CC1)C(c1ccccc1F)N1CCC(S)/C(=C/c2c[nH]nn2)C1 (stereo not drawn) [Example 235, (E)-1-[2-Cyclopropyl-1-(2-fluorophenyl)-2-oxoethyl]-4-sulfanyl-3-{[1(2)H-1,2,3-triazol-4(5)-yl]methylidene}piperidine hydrochloride]
Test Example 1 (% inhibition) [1]: 77%
Test Example 2 (% inhibition) [2]: 54%

O=C(O)CCn1ncc(/C=C2\CN(C(C(=O)C3CC3)c3ccccc3F)CCC2S)n1 (stereo not drawn) [Example 242, (E)-3-{[2-(Carboxyethyl)-2H-1,2,3-triazol-4-yl]methylidene}-1-[2-cyclopropyl-1-(2-fluorophenyl)-2-oxoethyl]-4-sulfanylpiperidine hydrochloride]
inhibition at 10 µg/mL [1]: 75%
inhibition at 10 µg/mL [2]: 82%

O=C(O)CCn1nnnc1/C=C1\CN(C(C(=O)C2CC2)c2ccccc2F)CCC1S (stereo not drawn) [Example 258, (E)-3-{[1-(2-Carboxyethyl)-1H-tetrazol-5-yl]methylidene}-1-[2-cyclopropyl-1-(2-fluorophenyl)-2-oxoethyl]-4-sulfanylpiperidine hydrochloride]
inhibition at 10 µg/mL [1]: 85%
inhibition at 10 µg/mL [2]: 76%

CONC(=O)Cn1ccc(/C=C2\CN(C(C(=O)C3CC3)c3ccccc3F)CCC2S)n1.Cl (stereo not drawn) [Example 192, (E)-1-[2-Cyclopropyl-1-(2-fluorophenyl)-2-oxoethyl]-3-{[1-(N-methoxycarbamoylmethyl)-1H-pyrazol-3-yl]methylidene}-4-sulfanylpiperidine hydrochloride]
Test Example 1 (% inhibition) [1]: 84%
Test Example 2 (% inhibition) [2]: 81%

O=C(O)CCn1nnc(/C=C2\CN(C(C(=O)C3CC3)c3ccccc3F)CCC2S)n1 (stereo not drawn) [Example 257, (E)-3-{[2-(2-Carboxyethyl)-2H-tetrazol-5-yl]methylidene}-1-[2-cyclopropyl-1-(2-fluorophenyl)-2-oxoethyl]-4-sulfanylpiperidine hydrochloride]
inhibition at 10 µg/mL [1]: 87%
inhibition at 10 µg/mL [2]: 51%

O=C(O)Cn1ccc(/C=C2\CN(C(C(=O)C3CC3)c3ccccc3F)CCC2S)n1 (stereo not drawn) [Example 77, (E)-3-{[1-(Carboxymethyl)-1H-pyrazol-3-yl]methylidene}-1-[2-cyclopropyl-1-(2-fluorophenyl)-2-oxoethyl]-4-sulfanylpiperidine hydrochloride]
inhibition at 10 µg/mL [1]: 76%
inhibition at 10 µg/mL [2]: 77%
